Measurements taken from PubChem BioAssay (NCI).
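Where inhibition never reached the appropriate level, the endpoint shown equals the highest concentration tested. Otherwise, values were interpolated linearly from a five-concentration, 48-hour dose response in 96-well plates. TGI marks complete inhibition of growth.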

Assays:
Assay in all cases: inhibition of tumour cell growth, NCI panel, 48 h
[1] = system: SK-MEL-5 melanoma
[2] = system: RPMI-8226 leukemia
[3] = system: NCI-H226 lung
[4] = system: MALME-3M melanoma
[5] = system: SNB-19 CNS
[6] = system: UACC-257 melanoma
[7] = system: M14 melanoma
[8] = system: A549 NSCLC
[9] = system: KM12 colon
[10] = system: CAKI-1 renal

Row | SMILES | TGI [1] [µM] | TGI [2] [µM] | TGI [3] [µM] | TGI [4] [µM] | TGI [5] [µM] | TGI [6] [µM] | TGI [7] [µM] | TGI [8] [µM] | TGI [9] [µM] | TGI [10] [µM]
1 | CCOC(=O)c1ccc(NC(NC(=O)CC)(C(F)(F)F)C(F)(F)F)cc1 | > 100 | > 100 | > 100 | > 100 | > 100 | > 100 | > 100 | > 100 | > 100 | > 100
2 | O=[N+]([O-])c1cc(Cl)ccc1S(=O)(=O)c1cc(Cl)cc2c1NCCC2 | 43.7 | > 100 | > 100 | > 100 | > 100 | 64.8 | > 100 | > 100 | > 100 | > 100
3 | S=C1CSc2c(cnc3ccccc23)N1 | > 100 | > 100 | > 100 | > 100 | > 100 | > 100 | > 100 | > 100 | > 100 | > 100
4 | COc1c(Cl)c(Cl)c(OC)c2c1C(=O)C=CC2=O | > 100 | 73.1 | > 100 | 29.5 | > 100 | 35.4 | 43.3 | > 100 | 32.2 | 59.1
5 | CC(C)(C)OC(=O)N1C/C=C\C(=O)C2(OCCO2)c2ccccc21 | 31.7 | 54.1 | 38.9 | 48.1 | > 100 | 39.3 | 65.1 | > 100 | > 100 | > 100
6 | CCOC(=O)C1=CN(C(=O)c2ccccc2)CCC1Cc1ccccc1 (stereo not given) | 28.3 | 36.6 | > 100 | 68 | > 100 | 34.3 | 37.1 | > 100 | > 100 | > 100
7 | CN1CCN(c2c(O)c3c(c(O)c2Cl)C(=O)C=CC3=O)CC1 | 1.11 | 2.34 | 4.08 | 0.448 | 6.32 | 1.58 | 0.843 | 4.27 | 3.93 | 1.56
8 | CCCC1C(C#N)(C#N)C(C#N)=C(N)C1(C)C(C)=O (stereo not given) | > 100 | > 100 | > 100 | > 100 | > 100 | > 100 | > 100 | > 100 | > 100 | 21.6
9 | OCCNc1nc2c(N3CCCC3)nc(N3CCNCC3)nc2nc1NCc1ccccc1 | 26.1 | 38.4 | 35.2 | 35.9 | 29.4 | 33.5 | 29.4 | 31.4 | 25.5 | 31.4
10 | CSc1nc(=O)c(C#N)c(-c2ccccc2)n1C1OC(COC(C)=O)C(OC(C)=O)C(OC(C)=O)C1OC(C)=O (stereo not given) | > 100 | > 100 | > 100 | > 100 | > 100 | > 100 | > 100 | > 100 | > 100 | > 100
11 | Cc1ccc(NC(=O)CC(=O)N2N=C(c3ccccc3)C(N=Nc3ccc(S(=O)(=O)CCOS(=O)(=O)O)cc3)C2=O)cc1 (stereo not given) | > 100 | > 100 | > 100 | > 100 | > 100 | > 100 | > 100 | > 100 | > 100 | > 100
12 | CC(C)C(/C=C/c1ccccc1)=N\NC(=S)NN | > 100 | > 100 | > 100 | > 100 | > 100 | > 100 | > 100 | > 100 | > 100 | > 100
13 | COc1cc(C)cc(OC)c1/C=C/C(=O)O | > 100 | > 100 | > 100 | > 100 | > 100 | > 100 | > 100 | > 100 | > 100 | > 100
14 | Cc1ccc(Nc2ccc(Nc3ccc(C)cc3S(=O)(=O)O)c3c2C(=O)c2ccccc2C3=O)c(S(=O)(=O)O)c1 | > 100 | > 100 | > 100 | > 100 | > 100 | > 100 | > 100 | > 100 | > 100 | > 100
15 | CN(/N=C/c1ccc(Cl)c(Cl)c1)C1=NCCN1 | 30.7 | 60.9 | 72 | 36.9 | > 100 | 45.2 | 31.6 | > 100 | 67.6 | 37.8
16 | NC(CNc1ccc(O)cc1)C(=O)O (stereo not given) | > 100 | > 100 | > 100 | > 100 | > 100 | > 100 | > 100 | > 100 | > 100 | > 100
17 | O=C(c1ccccc1)n1[nH]c(=O)n(-c2ccc(Cl)cc2)c1=O | > 100 | > 100 | > 100 | > 100 | 83.3 | > 100 | > 100 | > 100 | > 100 | > 100
18 | COC1=CCC2=C(CCN(C(=O)C3CCC3)C2Cc2ccc(OC)c(O)c2)C1 (stereo not given) | 73.3 | > 100 | > 100 | > 100 | > 100 | > 100 | 78.9 | > 100 | > 100 | > 100
19 | C/C(NC(=O)c1ccccc1)=C(/C(=O)c1ccccc1)[C@@H]1OC(C)(C)O[C@@H]1[C@H]1COC(C)(C)O1 | 35.6 | 47.7 | > 100 | > 100 | > 100 | > 100 | > 100 | > 100 | > 100 | > 100
